Measured values taken from patent publication US20260262643A1, “HERBICIDAL BENZOXAZINES” (FMC CORPORATION, priority 2022, published 2026).

Assays:
[1] = system: barnyardgrass; test: Test C preemergence; assay type: in vivo, Echinochloa crusgalli; conditions: for Barnyardgrass plant response rating: preemergence; for Plant response rating, Barnyardgrass: Preemergence
Outline: (§1)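 Test material, in non-phytotoxic solvent with surfactant, was sprayed on the soil directly after seeding (preemergence) or on young plants of 2–10 cm with one to two leaves (postemergence). Greenhouse, 10 days; 0–100 visual control scale.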

[2] = system: blackgrass; test: Test C preemergence; assay type: in vivo, Alopecurus myosuroides; conditions: for Blackgrass plant response rating: preemergence; for Plant response rating, Blackgrass: Preemergence
Outline: as §1

[3] = system: corn; test: Test C preemergence; assay type: in vivo, Zea mays; conditions: for Corn plant response rating: preemergence; for Plant response rating, Corn: Preemergence
Outline: as §1

[4] = system: green foxtail; test: Test C preemergence; assay type: in vivo, Setaria viridis; conditions: for Foxtail, Green plant response rating: preemergence; for Plant response rating, Foxtail, Green: Preemergence
Outline: as §1

[5] = system: kochia; test: Test C preemergence; assay type: in vivo, Bassia scoparia; conditions: for Kochia plant response rating: preemergence; for Plant response rating, Kochia: Preemergence
Outline: as §1

[6] = system: oat, wild; test: Test C preemergence; assay type: in vivo, Avena fatua; conditions: for Oat, Wild plant response rating: preemergence; for Plant response rating, Oat, Wild: Preemergence
Outline: as §1

[7] = system: pigweed, palmer; test: Test C preemergence; assay type: in vivo, Amaranthus palmeri; conditions: for Pigweed, Palmer plant response rating: preemergence; for Plant response rating, Pigweed, Palmer: Preemergence
Outline: as §1

[8] = system: ragweed; test: Test C preemergence; assay type: in vivo, Ambrosia artemisiifolia; conditions: for Ragweed plant response rating: preemergence; for Plant response rating, Ragweed: Preemergence
Outline: as §1

[9] = system: ryegrass, Italian; test: Test C preemergence; assay type: in vivo, Lolium multiflorum; conditions: for Ryegrass, Italian plant response rating: preemergence; for Plant response rating, Ryegrass, Italian: Preemergence
Outline: as §1

[10] = system: soybean; test: Test C preemergence; assay type: in vivo, Glycine max; conditions: for Soybean plant response rating: preemergence; for Plant response rating, Soybean: Preemergence
Outline: as §1

[11] = system: wheat; test: Test C preemergence; assay type: in vivo, Triticum aestivum; conditions: for Wheat plant response rating: preemergence; for Plant response rating, Wheat: Preemergence
Outline: as §1

[12] = system: barnyardgrass; test: Test C postemergence; assay type: in vivo, Echinochloa crusgalli; conditions: 10 days
Outline: as §1

[13] = system: blackgrass; test: Test C postemergence; assay type: in vivo, Alopecurus myosuroides; conditions: 10 days
Outline: as §1

[14] = system: corn; test: Test C postemergence; assay type: in vivo, Zea mays; conditions: 10 days
Outline: as §1

[15] = system: green foxtail; test: Test C postemergence; assay type: in vivo, Setaria viridis; conditions: 10 days
Outline: as §1

[16] = system: kochia; test: Test C postemergence; assay type: in vivo, Bassia scoparia; conditions: 10 days
Outline: as §1

[17] = system: oat, wild; test: Test C postemergence; assay type: in vivo, Avena fatua; conditions: 10 days
Outline: as §1

[18] = system: pigweed, palmer; test: Test C postemergence; assay type: in vivo, Amaranthus palmeri; conditions: 10 days
Outline: as §1

[19] = system: ragweed; test: Test C postemergence; assay type: in vivo, Ambrosia artemisiifolia; conditions: 10 days
Outline: as §1

[20] = system: ryegrass, Italian; test: Test C postemergence; assay type: in vivo, Lolium multiflorum; conditions: 10 days
Outline: as §1

[21] = system: soybean; test: Test C postemergence; assay type: in vivo, Glycine max; conditions: 10 days
Outline: as §1

[22] = system: wheat; test: Test C postemergence; assay type: in vivo, Triticum aestivum; conditions: 10 days
Outline: as §1

[23] = system: galium; test: Test C postemergence; assay type: in vivo, Galium aparine; conditions: 10 days
Outline: as §1

[24] = system: horseweed; test: Test C postemergence; assay type: in vivo, Erigeron canadensis; conditions: 10 days
Outline: as §1

[25] = system: barnyardgrass; test: Test D flooded paddy test; assay type: in vivo, Echinochloa crus-galli; conditions: 250 g ai/ha, applied to paddy water, visual rating after 13 to 14 days, scale 0 to 100 (0 no effect, 100 complete control)
Outline: (§2)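 2-leaf plants; flood 3 cm above soil; compound dosed into paddy water; greenhouse 13–14 d; visual rating vs controls, 0–100 (100 = complete control); dash = not tested.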

[26] = system: ducksalad; test: Test D flooded paddy test; assay type: in vivo, Heteranthera limosa; conditions: 250 g ai/ha, applied to paddy water, visual rating after 13 to 14 days, scale 0 to 100 (0 no effect, 100 complete control)
Outline: as §2

[27] = system: rice; test: Test D flooded paddy test; assay type: in vivo, Oryza sativa; conditions: 250 g ai/ha, applied to paddy water, visual rating after 13 to 14 days, scale 0 to 100 (0 no effect, 100 complete control)
Outline: as §2

[28] = system: sedge, umbrella; test: Test D flooded paddy test; assay type: in vivo, Cyperus difformis; conditions: 250 g ai/ha, applied to paddy water, visual rating after 13 to 14 days, scale 0 to 100 (0 no effect, 100 complete control)
Outline: as §2

[29] = 500 g ai/ha, 0 to 100 scale (0 no effect, 100 complete control)
[30] = Test C, 125 g ai/ha, 0 to 100 scale (0 no effect, 100 complete control)
[31] = 125 g ai/ha, postemergence, 0 to 100 scale, 0 no effect, 100 complete control
[32] = 500 g ai/ha, postemergence, 0 to 100 scale (0 no effect, 100 complete control)
[33] = 125 g ai/ha, 0 to 100 scale, 0 no effect, 100 complete control
[34] = Postemergence, 125 g ai/ha, 0 to 100 scale (0 no effect, 100 complete control)
[35] = 500 g ai/ha, visual rating after 10 days, 0 to 100 scale (0 no effect, 100 complete control)
[36] = Postemergence, 500 g ai/ha, visual 0 to 100 scale (0 no effect, 100 complete control)

CC(C)c1ncn(-c2cccc(C(=O)N3CC(C(F)(F)F)Oc4c(Cl)cccc43)c2)n1 (single isomer, unassigned) [Compound 289]
10: Corn plant response rating [3, 30] | Plant response rating, Rice (Flood) [27]
20: Corn plant response rating [3, 29] | Plant response rating, Corn [14, 31] | Plant response rating, Foxtail, Green [15, 31] | Plant response rating, Wheat [22, 31]
70: Kochia plant response rating [5, 30] | Ragweed plant response rating [8, 29] | Plant response rating, Ragweed [19, 32]
30: Wheat plant response rating [11, 30] | Plant response rating, Barnyardgrass [12, 31] | Plant response rating, Blackgrass [13, 31] | Plant response rating, Corn [14, 32] | Plant response rating, Oat, Wild [17, 31]
90: Blackgrass plant response rating [2, 29] | Oat, Wild plant response rating [6, 29] | Soybean plant response rating [10, 29] | Soybean plant response rating [10, 30] | Plant response rating, Foxtail, Green [15, 32] | Plant response rating, Kochia [16, 32] | Plant response rating, Pigweed, Palmer [18, 31] | Plant response rating, Ryegrass, Italian [20, 32] | Plant response rating, Soybean [21, 32]
80: Blackgrass plant response rating [2, 30] | Oat, Wild plant response rating [6, 30] | Plant response rating, Kochia [16, 31]
65: Plant response rating, Ducksalad (Flood) [26]
40: Plant response rating, Ryegrass, Italian [20, 31] | Plant response rating, Wheat [22, 32] | Plant response rating, Horseweed [24, 32]
100: Barnyardgrass plant response rating [1, 29] | Foxtail, Green plant response rating [4, 29] | Foxtail, Green plant response rating [4, 30] | Kochia plant response rating [5, 29] | Pigweed, Palmer plant response rating [7, 29] | Pigweed, Palmer plant response rating [7, 30] | Ryegrass, Italian plant response rating [9, 29] | Ryegrass, Italian plant response rating [9, 30] | Plant response rating, Blackgrass [13, 32] | Plant response rating, Pigweed, Palmer [18, 32] | Plant response rating, Soybean [21, 31] | Plant response rating, Galium [23, 31] | Plant response rating, Galium [23, 32] | Plant response rating, Sedge, Umbrella (Flood) [28]
60: Barnyardgrass plant response rating [1, 30] | Plant response rating, Barnyardgrass [12, 32] | Plant response rating, Oat, Wild [17, 32] | Plant response rating, Ragweed [19, 31]
50: Ragweed plant response rating [8, 30] | Wheat plant response rating [11, 29] | Plant response rating, Barnyardgrass (Flood) [25]
0: Plant response rating, Horseweed [24, 31]

CCOC[C@H]1CN(C(=O)c2cc(-n3cnc(C4CCC4)n3)cc3c2OCCO3)c2cccc(Cl)c2O1 [Compound 386]
20: Corn plant response rating [3, 29] | Plant response rating, Ragweed [8, 33] | Plant response rating, Barnyardgrass [12, 34] | Plant response rating, Corn [14, 32]
50: Plant response rating, Ryegrass, Italian [9, 33] | Plant response rating, Soybean [10, 33] | Plant response rating, Blackgrass [13, 32] | Plant response rating, Foxtail, Green [15, 32] | Plant response rating, Ragweed [19, 34]
30: Plant response rating, Oat, Wild [6, 33] | Plant response rating, Barnyardgrass [12, 32] | Plant response rating, Horseweed [24, 34]
10: Plant response rating, Corn [14, 34] | Plant response rating, Foxtail, Green [15, 34] | Plant response rating, Wheat [22, 32] | Plant response rating, Wheat [22, 34]
70: Barnyardgrass plant response rating [1, 29] | Kochia plant response rating [5, 29] | Plant response rating, Kochia [5, 33]
60: Plant response rating, Ryegrass, Italian [20, 32] | Plant response rating, Horseweed [24, 32]
0: Blackgrass plant response rating [2, 29] | Plant response rating, Blackgrass [2, 33] | Plant response rating, Corn [3, 33] | Wheat plant response rating [11, 29] | Plant response rating, Wheat [11, 33] | Plant response rating, Blackgrass [13, 34] | Plant response rating, Oat, Wild [17, 32] | Plant response rating, Oat, Wild [17, 34] | Plant response rating, Barnyardgrass (Flood) [25] | Plant response rating, Ducksalad (Flood) [26] | Plant response rating, Rice (Flood) [27] | Plant response rating, Sedge, Umbrella (Flood) [28]
90: Foxtail, Green plant response rating [4, 29] | Plant response rating, Kochia [16, 32]
100: Pigweed, Palmer plant response rating [7, 29] | Plant response rating, Pigweed, Palmer [7, 33] | Soybean plant response rating [10, 29] | Plant response rating, Pigweed, Palmer [18, 32] | Plant response rating, Soybean [21, 32] | Plant response rating, Soybean [21, 34] | Plant response rating, Galium [23, 32] | Plant response rating, Galium [23, 34]
80: Ragweed plant response rating [8, 29] | Ryegrass, Italian plant response rating [9, 29] | Plant response rating, Kochia [16, 34] | Plant response rating, Pigweed, Palmer [18, 34] | Plant response rating, Ragweed [19, 32]
40: Plant response rating, Barnyardgrass [1, 33] | Plant response rating, Foxtail, Green [4, 33] | Oat, Wild plant response rating [6, 29] | Plant response rating, Ryegrass, Italian [20, 34]

Cc1cccc2c1O[C@@H](C)CN2C(=O)c1cc(-n2cnc(C(C)C)n2)cc2occc12 [Compound 195]
98: Plant response rating, Sedge, Umbrella (Flood) [28]
40: Plant response rating, Blackgrass [2, 35] | Plant response rating, Ryegrass, Italian [20, 31]
30: Blackgrass plant response rating [2, 30] | Plant response rating, Barnyardgrass [12, 31]
60: Ragweed plant response rating [8, 30] | Plant response rating, Barnyardgrass [12, 36]
80: Plant response rating, Oat, Wild [6, 35] | Ryegrass, Italian plant response rating [9, 30] | Plant response rating, Wheat [11, 35] | Plant response rating, Corn [14, 36] | Plant response rating, Ryegrass, Italian [20, 36]
70: Kochia plant response rating [5, 30] | Soybean plant response rating [10, 30] | Plant response rating, Ragweed [19, 31] | Plant response rating, Ragweed [19, 36] | Plant response rating, Horseweed [24, 36] | Plant response rating, Ducksalad (Flood) [26]
10: Plant response rating, Oat, Wild [17, 31]
20: Oat, Wild plant response rating [6, 30] | Plant response rating, Wheat [22, 31]
0: Plant response rating, Corn [3, 35] | Corn plant response rating [3, 30] | Wheat plant response rating [11, 30] | Plant response rating, Rice (Flood) [27]
45: Plant response rating, Barnyardgrass (Flood) [25]
90: Barnyardgrass plant response rating [1, 30] | Plant response rating, Blackgrass [13, 36] | Plant response rating, Foxtail, Green [15, 36] | Plant response rating, Kochia [16, 31] | Plant response rating, Oat, Wild [17, 36] | Plant response rating, Pigweed, Palmer [18, 31] | Plant response rating, Galium [23, 31] | Plant response rating, Horseweed [24, 31]
100: Plant response rating, Barnyardgrass [1, 35] | Plant response rating, Foxtail, Green [4, 35] | Foxtail, Green plant response rating [4, 30] | Plant response rating, Kochia [5, 35] | Plant response rating, Pigweed, Palmer [7, 35] | Pigweed, Palmer plant response rating [7, 30] | Plant response rating, Ragweed [8, 35] | Plant response rating, Ryegrass, Italian [9, 35] | Plant response rating, Soybean [10, 35] | Plant response rating, Kochia [16, 36] | Plant response rating, Pigweed, Palmer [18, 36] | Plant response rating, Soybean [21, 31] | Plant response rating, Soybean [21, 36] | Plant response rating, Galium [23, 36]
50: Plant response rating, Blackgrass [13, 31] | Plant response rating, Corn [14, 31] | Plant response rating, Foxtail, Green [15, 31] | Plant response rating, Wheat [22, 36]
